We go through 24 compounds from patent US8785649B2, “Ethynylphenylamidine compound or salt thereof, method for producing same, and fungicide for agricultural and horticultural use” (priority 2010, dated 2014).

The test system of experiment [1] is Wheat scab (Microdochium nivale). In words: Test of inhibition of growth of wheat scab mycelium. It is filed as cell-based. Particulars: read-out: inhibition rate (mycelium growth length).
In experiment [2] the test system is powdery mildew (Sphaerotheca cucurbitae). Put plainly: Test of effect on cucumber powdery mildew, vaporization properties. It is filed as in vivo. The following applies: 100 ppm drug solution dropped on aluminum foil on cucumber first leaf; seven days after inoculation; 2 cm or more = vaporization effect. The procedure:
A 10-mm square piece of aluminum foil was attached with a double-sided tape on the first leaf of cucumber planted in a 7.5-cm-diameter pot. […] The drug solution was added dropwise in […] using a micropipette. After air-drying the drug solution, the leaf was inoculated by spraying with a spore suspension of powdery mildew (Sphaerotheca cucurbitae). Seven days after inoculation, the diameter of a disease development inhibition circle on the cucumber first leaf was measured. The appearance of necrotic lesions on the leaf was examined in comparison with the untreated plot. There was judged to be a vaporization effect when an inhibition circle having a diameter of 2 cm or more was formed around the aluminum foil.

The subject of experiment [3] is wheat powdery mildew (Erysiphe graminis). Put plainly: Test of preventive effect on wheat powdery mildew. The following applies: wheat seedlings.
The mark [4] stands for this setting: treatment concentration 100 ppm.

As usually defined, the inhibition is the percentage by which the read-out fell short of the control. For `Cc1cc(N=CN(C)C)c(C)cc1C#CC(C)(C)C` [Compound 52, N,N-dimethyl-N′-[2,5-dimethyl-4-(3,3-dimethyl-1-butynyl)phenyl]formamidine], the inhibition at 10 ppm in experiment [1] came out at 100%.

`Cc1cc(N=CN(C)C)c(C)cc1C#C[Si](C)(C)C` [Compound 59, N,N-dimethyl-N′-[2,5-dimethyl-4-(2-trimethylsilyl-1-ethynyl)phenyl]formamidine]: the inhibition at 10 ppm in experiment [1] came to 100%. As for `CCN(C)C=Nc1ccc(C#CC(C)(C)C)cc1C` [Compound 66, N-ethyl-N-methyl-N′-[2-methyl-4-(3,3-dimethyl-1-butynyl)phenyl]formamidine], the inhibition at 10 ppm in experiment [1] was found to be 100%. For `CCN(C)C=Nc1ccc(C#C[Si](CC)(CC)CC)cc1C` [Compound 69], in experiment [2], the “Diameter of disease development inhibition circle” value is given as 2.75 cm.

Take `CCN(C)C=Nc1cc(C)c(C#CC(C)(C)C)cc1Cl` [Compound 85]: the “Diameter of disease development inhibition circle” value in experiment [2] was found to be 6.0 cm. As to `CCN(C)C=Nc1cc(Cl)c(C#CC(C)(C)C)cc1C` [Compound 91], the “Diameter of disease development inhibition circle” value in experiment [2] stood at 6.0 cm. Same read-out and setting: next, `CCN(C)C=Nc1cc(Cl)c(C#C[Si](C)(C)C)cc1C` [Compound 93]: 6.0 cm. On the same count and under the same terms, next, `CCN(C)C=Nc1cc(C)c(C#CC(C)(C)C)cc1C` [Compound 98]: 9.5 cm. Consider `CCN(C)C=Nc1cc(C)c(C#C[Si](C)(C)C)cc1C` [Compound 123, N-ethyl-N-methyl-N′-[2,5-dimethyl-4-(2-trimethylsilyl-1-ethynyl)phenyl]formamidine], for which the inhibition at 10 ppm in experiment [1] was determined as 100%. Moreover, in experiment [2], the “Diameter of disease development inhibition circle” value is 9.5 cm. The Preventive value in experiment [3] (treatment concentration 10 ppm), in experiment [3] (treatment concentration 20 ppm), in experiment [3] (treatment concentration 40 ppm) and in experiment [3] (setting [4]) was 100 throughout.

Consider `CCN(C)C=Nc1cc(C)c(C#C[Si](CC)(CC)CC)cc1C` [Compound 124], for which the “Diameter of disease development inhibition circle” value in experiment [2] is recorded as 3.75 cm. For the compound `CCN(C)C=Nc1cc(C)c(C#C[Si](C)(C)C(C)(C)C)cc1C` [Compound 126], in experiment [2], the “Diameter of disease development inhibition circle” value stood at 6.5 cm. With `CCN(C)C=Nc1cc(C)c(C#CC[Si](C)(C)C)cc1C` [Compound 127], in experiment [2], the “Diameter of disease development inhibition circle” value is listed as 2.0 cm. Take `Cc1cc(N=CN2CCCCC2)c(C)cc1C#C[Si](C)(C)C` [Compound 147]: the “Diameter of disease development inhibition circle” value in experiment [2] is recorded as 2.5 cm.

As to `CCN(C)C=Nc1cc(F)c(C#C[Si](C)(C)C)cc1C` [Compound 158], in experiment [2], the “Diameter of disease development inhibition circle” value is on record as 3.75 cm. `CCN(C)C=Nc1cc(C)c(C#CC(C)(C)O[Si](C)(C)C)cc1C` [Compound 161]: in experiment [2], the “Diameter of disease development inhibition circle” value is reported as 6.0 cm. The same measure, in the same setting: next, `CCN(C)C=Nc1cc(C)c(C#C[Si](C)(C)C)cc1C.Cl` [Compound 162, N-ethyl-N-methyl-N′-[2,5-dimethyl-4-(2-trimethylsilyl-1-ethynyl)phenyl]formamidine hydrochloride]: 8.0 cm; `CCN(C)C=Nc1cc(C)c(C#C[Si](C)(C)C(C)(C)C)cc1C.Cl` [Compound 163]: 8.0 cm.

Take `Cc1cc(N=CN(C)C(C)C)c(C)cc1C#C[Si](C)(C)C(C)(C)C` [Compound 171]: the “Diameter of disease development inhibition circle” value in experiment [2] came out at 7.0 cm.

`CCN(C)C=Nc1cc(Cl)c(C#CC(C)(C)C)cc1C.Cl` [Compound 172]: the “Diameter of disease development inhibition circle” value in experiment [2] was 7.0 cm. For `CC1(C)[C@H]2CC[C@]1(CS(=O)(=O)O)C(=O)C2.CCN(C)C=Nc1cc(C)c(C#C[Si](C)(C)C)cc1C` [Compound 175], in experiment [2], the “Diameter of disease development inhibition circle” value worked out at 7.0 cm. Regarding `CCN(C)C=Nc1cc(F)c(C#C[Si](C)(C)C)cc1C.Cl` [Compound 176], in experiment [2], the “Diameter of disease development inhibition circle” value stood at 7.0 cm.

Turning to `CCN(C)/C=N/c1ccc(-c2ccc(C(C)(C)C)cc2)cc1C` [Reference Compound A], the “Diameter of disease development inhibition circle” value in experiment [2] turned out to be 0 cm. The Preventive value in experiment [3] (treatment concentration 10 ppm) was 10; in experiment [3] (treatment concentration 20 ppm), 20; in experiment [3] (treatment concentration 40 ppm) it was 70; in experiment [3] (setting [4]), 100. In the case of `CCN(C)/C=N/c1cc(C)c(-c2ccc(C(C)(C)C)cc2)cc1C` [Reference Compound B], the “Diameter of disease development inhibition circle” value in experiment [2] came out at 0 cm. For the same compound, the Preventive value in experiment [3] (treatment concentration 10 ppm) worked out at 40; in experiment [3] (treatment concentration 20 ppm), 70; in experiment [3] (treatment concentration 40 ppm) it was 70; in experiment [3] (setting [4]) it was 95. For “N-ethyl-N-methyl-N′-[2,5-dimethyl-4-(2-trimethylsilyl-1-ethynyl)phenyl]formamidine (+)-camphorsulfonate [Compound 174]”, the “Diameter of disease development inhibition circle” value in experiment [2] was found to be 7.0 cm.
